In patent publication US10829478B2, “5-[3-[piperazin-1-yl]-3-oxo-propyl]-imidazolidine-2,4-dione derivatives as ADAMTS 4 and 5 inhibitors for treating e.g. osteoarthritis” (Galapagos NV, priority 2016, dated 2020):

Columns and labels:
human ADAMTS6 = human ADAMTS6 (Homo sapiens (Human), UniProt Q9UKP5); test: hADAMTS-6 fluorescent based protease assay (520 MMP FRET substrate XII); type: biochemical; conditions: 37° C. for 2 h; read-out: hADAMTS-6 potency IC50
Experimental: The IC50 value for test compounds can be determined in a fluorescent based protease assay.
The substrate contains sequence Arg-Pro-Lys-Pro-Tyr-Ala-Nva-Trp-Met-Lys (SEQ ID NO: 7) with attached a fluorescent probe and a quencher. Without ADAMTS6, the emission of the probe is quenched. If the substrate is cleaved by ADAMTS6, the emission of the probe is not quenched anymore. Inhibition of ADAMTS6 activity, will result in a decrease of the signal.
To perform the assay, 4 μL of a dilution series of compound in water, starting from 20 μM highest concentration, ⅕ dilution, is added to the wells. 2 ng ADAMTS6 enzyme is diluted in 25 mM Tris pH8.0, 0.05% CHAPS, 2.5 mM CaCl2 in a total volume of 26 μL (final concentration 0.73 nM). The reaction is started by addition of 10 μL of 1 μM 520 MMP FRET Substrate XII (final concentration, diluted in same buffer as described above) and the mixture is incubated at 37° C. for 2 h. […] After this incubation, cleavage of the substrate is measured using the Envision (Perkin Elmer, exc485/em530).

human ADAMTS-5 = human ADAMTS-5 (Homo sapiens (Human), UniProt Q9UNA0); test: hADAMTS-5 TBIS-1 cleavage assay, Protocol 3; type: biochemical; conditions: 90 min at 37° C., read-out: hADAMTS-5 potency IC50
Chain of human ADAMTS-5 (Q9UNA0 262-930): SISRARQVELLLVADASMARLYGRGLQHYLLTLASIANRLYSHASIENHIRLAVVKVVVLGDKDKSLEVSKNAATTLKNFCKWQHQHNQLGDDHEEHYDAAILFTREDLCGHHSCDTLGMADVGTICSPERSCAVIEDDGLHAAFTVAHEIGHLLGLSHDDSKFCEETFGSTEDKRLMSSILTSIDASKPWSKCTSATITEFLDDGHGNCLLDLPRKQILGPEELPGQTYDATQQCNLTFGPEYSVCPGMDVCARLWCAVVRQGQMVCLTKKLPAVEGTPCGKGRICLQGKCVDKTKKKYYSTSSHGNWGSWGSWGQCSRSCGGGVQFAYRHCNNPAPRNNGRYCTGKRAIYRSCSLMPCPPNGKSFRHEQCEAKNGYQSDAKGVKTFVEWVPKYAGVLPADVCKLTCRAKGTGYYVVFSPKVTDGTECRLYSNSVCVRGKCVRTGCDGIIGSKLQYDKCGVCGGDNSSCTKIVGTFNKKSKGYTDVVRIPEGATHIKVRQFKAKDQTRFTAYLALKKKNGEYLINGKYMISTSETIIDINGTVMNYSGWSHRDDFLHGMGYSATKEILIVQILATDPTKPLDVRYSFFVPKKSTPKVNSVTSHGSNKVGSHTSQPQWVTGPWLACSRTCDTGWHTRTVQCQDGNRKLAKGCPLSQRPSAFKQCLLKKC
Experimental: The reaction is initiated by adding to the assay plate TBIS-1 (10 μL, 4.5 μM, Anaspec) in the same buffer.
Finally, the fluorescence is read on the Envision (Perkin Elmer) after an incubation of 90 min at 37° C. (Excitation 485 nm, emission 530).

Chain of human ADAMTS6 (Q9UKP5 other isoform, or with tags, fused parts or gaps): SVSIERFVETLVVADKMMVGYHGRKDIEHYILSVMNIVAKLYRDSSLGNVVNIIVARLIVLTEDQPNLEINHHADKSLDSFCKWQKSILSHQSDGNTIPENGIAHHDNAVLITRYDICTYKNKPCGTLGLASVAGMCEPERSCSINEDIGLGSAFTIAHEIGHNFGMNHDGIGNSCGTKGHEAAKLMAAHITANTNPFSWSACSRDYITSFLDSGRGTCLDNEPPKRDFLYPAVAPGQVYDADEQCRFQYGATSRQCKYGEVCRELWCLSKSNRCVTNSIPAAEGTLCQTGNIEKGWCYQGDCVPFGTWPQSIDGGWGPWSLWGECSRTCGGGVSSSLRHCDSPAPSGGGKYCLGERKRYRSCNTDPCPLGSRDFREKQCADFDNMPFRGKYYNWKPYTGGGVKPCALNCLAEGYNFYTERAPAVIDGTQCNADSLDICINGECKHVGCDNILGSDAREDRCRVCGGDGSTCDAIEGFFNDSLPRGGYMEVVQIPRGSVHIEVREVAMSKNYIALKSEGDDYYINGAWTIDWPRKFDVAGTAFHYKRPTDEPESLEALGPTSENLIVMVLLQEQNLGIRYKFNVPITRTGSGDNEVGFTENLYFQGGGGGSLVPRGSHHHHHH

IC50 (human ADAMTS6)	IC50 (human ADAMTS-5)	SMILES
> 100 nM	–	COc1cc(F)ccc1N1CCN(C(=O)CC[C@@]2(C)NC(=O)NC2=O)C[C@@H]1C [Cpd 81, (5R)-5-[3-[(3 S)-4-(4-fluoro-2-methoxy-phenyl)-3-methyl-piperazin-1-yl]-3-oxo-propyl]-5-methyl-imidazolidine-2,4-dione]
> 100 nM	> 100 nM	COc1ccc(C)c(N2CCN(C(=O)CCC3(C)NC(=O)NC3=O)CC2)c1 (stereo not drawn) [Cpd 32, 5-[3-[4-(5-methoxy-2-methyl-phenyl)piperazin-1-yl]-3-oxo-propyl]-5-methyl-imidazolidine-2,4-dione]
0.001 to 25 nM	–	Cc1cccc(C2(CCC(=O)N3CCN(c4ccc(Cl)c(OC(F)(F)F)c4)[C@@H](C)C3)NC(=O)NC2=O)n1 (stereo partly drawn) [Cpd 101, 5-[3-[(3 S)-4-[4-chloro-3-(trifluoromethoxy)phenyl]-3-methyl-piperazin-1-yl]-3-oxo-propyl]-5-(6-methyl-2-pyridyl)imidazolidine-2,4-dione]
25 to 50 nM	–	C[C@]1(CCC(=O)N2CCN(c3ccc(Cl)c(OC(F)(F)F)c3)CC2)NC(=O)NC1=O [Cpd 88, (5R)-5-[3-[4-[4-chloro-3-(trifluoromethoxy)phenyl]piperazin-1-yl]-3-oxo-propyl]-5-methyl-imidazolidine-2,4-dione]
> 100 nM	> 100 nM	COc1cc(F)c(F)cc1N1CCN(C(=O)CC[C@@]2(C)NC(=O)NC2=O)C[C@@H]1C [Cpd 113, (5R)-5-[3-[(3 S)-4-(4,5-difluoro-2-methoxy-phenyl)-3-methyl-piperazin-1-yl]-3-oxo-propyl]-5-methyl-imidazolidine-2,4-dione]
> 100 nM	–	CCc1cc(N2CCN(C(=O)CC[C@@]3(C)NC(=O)NC3=O)C[C@@H]2C)c(OC)cc1Cl [Cpd 103, (5R)-5-[3-[(3 S)-4-(4-chloro-5-ethyl-2-methoxy-phenyl)-3-methyl-piperazin-1-yl]-3-oxo-propyl]-5-methyl-imidazolidine-2,4-dione]
> 100 nM	> 100 nM	COc1cccc(N2CCN(C(=O)CCC3(C)NC(=O)NC3=O)CC2)c1C (stereo not drawn) [Cpd 33, 5-[3-[4-(3-methoxy-2-methyl-phenyl)piperazin-1-yl]-3-oxo-propyl]-5-methyl-imidazolidine-2,4-dione]
0.001 to 25 nM	25 to 50 nM	COC[C@]1(C[C@H](C)C(=O)N2CCN(c3cc(C)c(Cl)c(OC)c3)[C@@H](C)C2)NC(=O)NC1=O (mixture of isomers) [Cpd 126, 5-[3-[(3S)-4-(4-chloro-3-methoxy-5-methyl-phenyl)-3-methyl-piperazin-1-yl]-2-methyl-3-oxo-propyl]-5-(methoxymethyl)imidazolidine-2,4-dione]
> 100 nM	–	CCc1cc(CC)cc(N2CCN(C(=O)CC[C@@]3(C)NC(=O)NC3=O)CC2)c1 [Cpd 72, (5R)-5-[3-[4-(3,5-diethylphenyl)piperazin-1-yl]-3-oxo-propyl]-5-methyl-imidazolidine-2,4-dione]
> 100 nM	> 100 nM	COc1ccc(C)c(N2CCN(C(=O)CCC3(C)NC(=O)NC3=O)C[C@@H]2C)c1 (stereo partly drawn) [Cpd 35, 5-[3-[(3S)-4-(5-methoxy-2-methyl-phenyl)-3-methyl-piperazin-1-yl]-3-oxo-propyl]-5-methyl-imidazolidine-2,4-dione]
> 100 nM	> 100 nM	COc1cccc(N2CCN(C(=O)CC[C@H]3NC(=O)NC3=O)CC2)c1C [Cpd 137, (5R)-5-[3-[4-(3-methoxy-2-methyl-phenyl)piperazin-1-yl]-3-oxo-propyl]imidazolidine-2,4-dione]
25 to 50 nM	–	COc1cc(N2CCN(C(=O)CC[C@@]3(C)NC(=O)NC3=O)CC2)c(OC)cc1Cl [Cpd 97, (5R)-5-[3-[4-(4-chloro-2,5-dimethoxy-phenyl)piperazin-1-yl]-3-oxo-propyl]-5-methyl-imidazolidine-2,4-dione]
> 100 nM	–	COc1c(F)cccc1N1CCN(C(=O)CC[C@@]2(C)NC(=O)NC2=O)C[C@@H]1C [Cpd 84, (5R)-5-[3-[(3 S)-4-(3-fluoro-2-methoxy-phenyl)-3-methyl-piperazin-1-yl]-3-oxo-propyl]-5-methyl-imidazolidine-2,4-dione]
> 100 nM	–	COc1ccc(OC(F)(F)F)c(N2CCN(C(=O)CC[C@@]3(C)NC(=O)NC3=O)C[C@@H]2C)c1 [Cpd 108, (5R)-5-[3-[(3S)-4-[5-methoxy-2-(trifluoromethoxy)phenyl]-3-methyl-piperazin-1-yl]-3-oxo-propyl]-5-methyl-imidazolidine-2,4-dione]
> 100 nM	–	COc1c(F)cccc1N1CCN(C(=O)CC[C@@]2(C)NC(=O)NC2=O)CC1 [Cpd 82, (5R)-5-[3-[4-(3-fluoro-2-methoxy-phenyl)piperazin-1-yl]-3-oxo-propyl]-5-methyl-imidazolidine-2,4-dione]
0.001 to 25 nM	–	COc1cc(N2CCN(C(=O)CC[C@@]3(C)NC(=O)NC3=O)C[C@@H]2C)c(OC)cc1Cl [Cpd 104, (5R)-5-[3-[(3 S)-4-(4-chloro-2,5-dimethoxy-phenyl)-3-methyl-piperazin-1-yl]-3-oxo-propyl]-5-methyl-imidazolidine-2,4-dione]
50 to 100 nM	–	CC(C)c1cc(N2CCN(C(=O)CC[C@@]3(C)NC(=O)NC3=O)CC2)ccc1Cl [Cpd 87, (5R)-5-[3-[4-(4-chloro-3-isopropyl-phenyl)piperazin-1-yl]-3-oxo-propyl]-5-methyl-imidazolidine-2,4-dione]

Continued, compound first:

SMILES	IC50 (human ADAMTS6)	IC50 (human ADAMTS-5)
COc1cc(N2CCN(C(=O)CC[C@H]3NC(=O)NC3=O)C[C@H]2C)cc(F)c1F [Cpd 127, (5R)-5-[3-[(3R)-4-(3,4-difluoro-5-methoxy-phenyl)-3-methyl-piperazin-1-yl]-3-oxo-propyl]imidazolidine-2,4-dione]	> 100 nM	> 100 nM
COc1c(Cl)cccc1N1CCN(C(=O)CC[C@@]2(C)NC(=O)NC2=O)CC1 [Cpd 68, (5R)-5-[3-[4-(3-chloro-2-methoxy-phenyl)piperazin-1-yl]-3-oxo-propyl]-5-methyl-imidazolidine-2,4-dione]	> 100 nM	–
COc1ccc(Cl)cc1N1CCN(C(=O)CC[C@@]2(C)NC(=O)NC2=O)CC1 [Cpd 77, (5R)-5-[3-[4-(5-chloro-2-methoxy-phenyl)piperazin-1-yl]-3-oxo-propyl]-5-methyl-imidazolidine-2,4-dione]	> 100 nM	–
COc1cc(N2CCN(C(=O)[C@@H](C)C[C@@]3(C)NC(=O)NC3=O)C[C@@H]2C)cc(OC)c1Cl (stereo in doubt) [Cpd 44, 5-[3-[(3S)-4-(4-chloro-3,5-dimethoxy-phenyl)-3-methyl-piperazin-1-yl]-2-methyl-3-oxo-propyl]-5-methyl-imidazolidine-2,4-dione]	0.001 to 25 nM	50 to 100 nM
CCc1cc(N2CCN(C(=O)CCC3(CC(=O)O)NC(=O)NC3=O)C[C@@H]2C)ccc1Cl (stereo partly drawn) [Cpd 98, 2-[4-[3-[(3 S)-4-(4-chloro-3-ethyl-phenyl)-3-methyl-piperazin-1-yl]-3-oxo-propyl]-2,5-dioxo-imidazolidin-4-yl]acetic acid]	0.001 to 25 nM	–
COc1cc(N2CCN(C(=O)CC[C@@]3(C)NC(=O)NC3=O)CC2)c(C)cc1F [Cpd 67, (5R)-5-[3-[4-(4-fluoro-5-methoxy-2-methyl-phenyl)piperazin-1-yl]-3-oxo-propyl]-5-methyl-imidazolidine-2,4-dione]	50 to 100 nM	–
COc1cc(N2CCN(C(=O)CC[C@@]3(C)NC(=O)NC3=O)C[C@@H]2C)cc(OC)c1Cl [Cpd 110, (5R)-5-[3-[(3 S)-4-(4-chloro-3,5-dimethoxy-phenyl)-3-methyl-piperazin-1-yl]-3-oxo-propyl]-5-methyl-imidazolidine-2,4-dione]	0.001 to 25 nM	> 100 nM
COc1ccc(C)c(N2CCN(C(=O)CC[C@H]3NC(=O)NC3=O)C[C@@H]2C)c1 [Cpd 140, (5R)-5-[3-[(3 S)-4-(5-methoxy-2-methyl-phenyl)-3-methyl-piperazin-1-yl]-3-oxo-propyl]imidazolidine-2,4-dione]	> 100 nM	> 100 nM
CCc1cc(N2CCN(C(=O)CCC3(c4cccc(C)n4)NC(=O)NC3=O)C[C@@H]2C)ccc1Cl (stereo partly drawn) [Cpd 100, 5-[3-[(3 S)-4-(4-chloro-3-ethyl-phenyl)-3-methyl-piperazin-1-yl]-3-oxo-propyl]-5-(6-methyl-2-pyridyl)imidazolidine-2,4-dione]	0.001 to 25 nM	–
CCc1cc(N2CCN(C(=O)CC[C@@]3(C)NC(=O)NC3=O)CC2)c(OC)cc1Cl [Cpd 102, (5R)-5-[3-[4-(4-chloro-5-ethyl-2-methoxy-phenyl)piperazin-1-yl]-3-oxo-propyl]-5-methyl-imidazolidine-2,4-dione]	> 100 nM	–
COc1cc(Cl)c(Cl)cc1N1CCN(C(=O)CC[C@@]2(C)NC(=O)NC2=O)C[C@@H]1C [Cpd 92, (5R)-5-[3-[(3 S)-4-(4,5-dichloro-2-methoxy-phenyl)-3-methyl-piperazin-1-yl]-3-oxo-propyl]-5-methyl-imidazolidine-2,4-dione]	0.001 to 25 nM	–
COc1ccc(F)cc1N1CCN(C(=O)CC[C@@]2(C)NC(=O)NC2=O)CC1 [Cpd 83, (5R)-5-[3-[4-(5-fluoro-2-methoxy-phenyl)piperazin-1-yl]-3-oxo-propyl]-5-methyl-imidazolidine-2,4-dione]	> 100 nM	–
